Laboratory results reported in patent US20060128715A1, “Oxime derivative hydroxyethylamine aspartyl-protease inhibitors” (priority 2004, published 2006).
“And” between values parts separate entries of the source, which are not always exact repeats. Equal entries are not always repeated.

Legend:
[1] = system: cathepsin D (catD) versus beta-secretase (BACE); assay: Selectivity for BACE versus catD (ratio of IC50 values); format: biochemical; conditions: each value is an average of four experimental runs; multiple values = more than one experiment
Protocol: (§1) Selectivity was calculated as a ratio of inhibition (IC50) values in which the inhibition of beta-secretase was compared to the inhibition of other aspartyl proteases.
In the following examples, each value is an average of four experimental runs and multiple values for one compound indicate that more than one experiment was conducted.

[2] = system: cathepsin E (catE) versus beta-secretase (BACE); assay: Selectivity for BACE versus catE (ratio of IC50 values); format: biochemical; conditions: multiple values = more than one experiment
Protocol: as §1
Selectivity is reported as the ratio of IC50(catE):IC50(BACE).

Structure (SMILES) | Selectivity IC50(catD)/IC50(BACE) [1] | Selectivity IC50(catE)/IC50(BACE) [2]
Cn1cc2c(n1)CCC(NCC(O)C(Cc1cc(F)cc(F)c1)NS(C)(=O)=O)(c1cccc(C(C)(C)C)c1)C2 (single isomer, unassigned) [Example 50-18] | 11.0 | –
CC(C)(C)c1cccc(C2(NCC(O)C(Cc3cc(F)cc(F)c3)NC(=O)CF)CCc3n[nH]cc3C2)c1 (single isomer, unassigned) [Example 50-26] | 17.8 | –
CC(C)(C)c1cccc(C2(NCC(O)C(Cc3cc(F)cc(F)c3)NC(=O)CF)CCc3n[nH]cc3C2)c1 (single isomer, unassigned) [Example 50-27] | 7.8 | –
CC(C)(C)c1cccc(C2(NCC(O)C(Cc3cc(F)cc(F)c3)NS(C)(=O)=O)CCc3n[nH]cc3C2)c1 (single isomer, unassigned) [Example 51-18] | – | 23.2
CC(C)(C)c1cccc(C2(NCC(O)C(Cc3cc(F)cc(F)c3)NS(C)(=O)=O)CCc3n[nH]cc3C2)c1 (single isomer, unassigned) [Example 51-19] | – | 5.8
CON=C1CCC(NCC(O)C(Cc2cc(F)cc(F)c2)NC(C)=O)(c2cccc(C(C)(C)C)c2)CC1 (stereo not drawn) [Example 50-2] | 15.9 and 18.3 | –
CCON=C1CCC(NCC(O)C(Cc2cc(F)cc(F)c2)NC(C)=O)(c2cccc(C(C)(C)C)c2)CC1 (stereo not drawn) [Example 50-3] | 1.8 | –
CC(=O)NC(Cc1cc(F)cc(F)c1)C(O)CNC1(c2cccc(C(C)(C)C)c2)CCC(=NOCCO)CC1 (stereo not drawn) [Example 50-4] | 2.3 and 2.5 | –
CC(=O)NC(Cc1cc(F)cc(F)c1)C(O)CNC1(c2cccc(C(C)(C)C)c2)CCc2nn(C(C)=O)cc2C1 (stereo not drawn) [Example 50-12] | 11.1 | –
CC(=O)NC(Cc1cc(F)cc(F)c1)C(O)CNC1(c2cccc(C(C)(C)C)c2)CCC(=CC#N)CC1 (stereo not drawn) [Example 50-14] | 1.9 | –
CC(=O)NC(Cc1cc(F)cc(F)c1)C(O)CNC1(c2cccc(-c3ccoc3)c2)CCc2nn(C)cc2C1 (stereo not drawn) [Example 50-19] | 1.8 | –
CC(=O)NC(Cc1ccccc1)C(O)CNC1(c2cccc(C(C)(C)C)c2)CCc2n[nH]cc2C1 (stereo not drawn) [Example 50-20] | 19.1 | –
Cn1cc2c(n1)CCC(NCC(O)C(Cc1cc(F)cc(F)c1)NC(=O)CF)(c1cccc(C(C)(C)C)c1)C2 (stereo not drawn) [Example 50-22] | 2.0 | –
CC(C)(C)c1cccc(C2(NCC(O)C(Cc3cc(F)cc(F)c3)NC(=O)CF)CCc3n[nH]cc3C2)c1 (stereo not drawn) [Example 50-25] | 8.5 | –
CON=C1CCC(NCC(O)C(Cc2cc(F)cc(F)c2)NC(C)=O)(c2cccc(C(C)(C)C)c2)CC1 (stereo not drawn) [Example 51-2] | – | 9.3 and 10.4
CCON=C1CCC(NCC(O)C(Cc2cc(F)cc(F)c2)NC(C)=O)(c2cccc(C(C)(C)C)c2)CC1 (stereo not drawn) [Example 51-3] | – | 3.3
C=C1CCC(NCC(O)C(Cc2cc(F)cc(F)c2)NC(C)=O)(c2cccc(C(C)(C)C)c2)CC1 (stereo not drawn) [Example 51-14] | – | 1.9
CC(=O)NC(Cc1cc(F)cc(F)c1)C(O)CNC1(c2cccc(C(C)(C)C)c2)CCC(=CC#N)CC1 (stereo not drawn) [Example 51-17] | – | 3.9
Cn1cc2c(n1)CCC(NCC(O)C(Cc1cc(F)cc(F)c1)NS(C)(=O)=O)(c1cccc(C(C)(C)C)c1)C2 (stereo not drawn) [Example 51-21] | – | 4.8

The remaining lines, values ahead:

Selectivity IC50(catD)/IC50(BACE) [1] | Selectivity IC50(catE)/IC50(BACE) [2] | Structure (SMILES)
25.4 | – | CC(C)(C)c1cccc(C2(NCC(O)C(Cc3cc(F)cc(F)c3)NS(C)(=O)=O)CCc3n[nH]cc3C2)c1 (single isomer, unassigned) [Example 50-15]
2.7 | – | CC(C)(C)c1cccc(C2(NCC(O)C(Cc3cc(F)cc(F)c3)NS(C)(=O)=O)CCc3n[nH]cc3C2)c1 (single isomer, unassigned) [Example 50-16]
1.1 | – | CC(=O)NC(Cc1cc(F)cc(F)c1)C(O)CNC1(c2cccc(-c3ccsc3)c2)CCc2nn(C)cc2C1 (stereo not drawn) [Example 50-17]
4.5 | – | CC(=O)NC(Cc1cc(F)cc(F)c1)C(O)CNC1(c2cccs2)CCc2n[nH]cc2C1 (stereo not drawn) [Example 50-23]
5.9 and 7.0 | – | CC(=O)NC(Cc1cc(F)cc(F)c1)C(O)CNC1(c2cc(CC(C)(C)C)cs2)CCc2n[nH]cc2C1 (stereo not drawn) [Example 50-24]
2.8 | – | CC(=O)NC(Cc1cc(F)cc(F)c1)C(O)CNC1(c2cccc(C(C)(C)C)c2)CCc2nn(C)cc2C1 (stereo not drawn) [Example 50-28]
16.3 | – | CC(=O)NC(CC(C)C)C(O)CNC1(c2cccc(C(C)(C)C)c2)CCc2n[nH]cc2C1 (stereo not drawn) [Example 50-29]
– | 8.4 | CC(=O)NC(Cc1cc(F)cc(F)c1)C(O)CNC1(c2cccc(C(C)(C)C)c2)CCc2nn(C(C)=O)cc2C1 (stereo not drawn) [Example 51-12]
– | 1.1 | CC(=O)NC(Cc1cc(F)cc(F)c1)C(O)CNC1(c2cccc(-c3ccsc3)c2)CCc2nn(C)cc2C1 (stereo not drawn) [Example 51-20]
– | 1.8 | CC(=O)NC(Cc1cc(F)cc(F)c1)C(O)CNC1(c2cccc(-n3cccn3)c2)CCc2nn(C)cc2C1 (stereo not drawn) [Example 51-22]
– | 1.8 | CC(=O)NC(Cc1cc(F)cc(F)c1)C(O)CNC1(c2cccc(C(C)(C)C)c2)CCc2nn(C)cc2C1 (stereo not drawn) [Example 51-23]
